pKi: −log10 of the molar value.
Tests used:
[1] = test system: db/db mutant diabetic mice; assay: oGTT in diabetic db/db mice; format: in vivo, mouse; conditions: 3.3, 10 or 30 mpk oral, glucose bolus 2 gram/kg, FIG. 8
Method: (§1) Thirty minutes later, a glucose bolus (2 gram/kg) was then delivered per orally. Plasma glucose levels were determined at indicated time points over a two hour period using blood (˜5 μl) collected from tail nick and a glucose meter. Glycemic excursion curve was graphed based on data from 6 mice and given in mean values +/−SEM.

C57/Bl6 mice = assay: oral glucose tolerance test (oGTT) in C57/Bl6 mice; format: in vivo, mouse; conditions: 1, 3.3 or 10 mpk oral, 30 min before glucose bolus 3 gram/kg, FIG. 5
Method: as §1, with “(3” for “(2”, “+/−SEM (FIG. 5 upper left panel).” for “+/−SEM.”

C57bl/6 male mice [2] = assay: plasma glucose levels (hypoglycemia) in fasted mice; format: in vivo, mouse; conditions: 10 mpk or 30 mpk oral, 0-120 minutes post-dosing, FIG. 7
Method: Plasma glucose levels were determined at 0 minute (right before dosing), and 30, 60, 90, and 120 minutes post-dosing using blood (˜5 μl) collected from tail nick and a glucose meter. Glycemic changes were graphed based on data from 6 mice and given in mean values +/−SEM.

C57bl/6 male mice [3] = assay: insulin release in response to a glucose bolus in mice; format: in vivo, mouse; conditions: 10 mpk oral; 5, 10 and 20 minutes after glucose bolus 3 g/kg, FIG. 5
Method: C57bl/6 male mice (8 weeks of age) were fasted for 18 hours, and randomly assigned into eight groups with n=6 for each group. Mice were administered per orally with vehicle (20% HPCD) or with 10 mpk EMD 386088. After 30 minutes, a glucose bolus of 3 g/kg was administered orally. Blood was collected in heparinated blood collection tubes at 0 minute (no glucose bolus), 5 minutes, 10 minutes, and 20 minutes after glucose bolus. Plasma samples were obtained via centrifugation at 500×g for 20 minutes and assayed for insulin using an Ultra Sensitive Insulin ELISA kit (Crystal Chem. Inc., Downers Grove, Ill.).

[4] = target: cloned human 5-HT6 subtype (Homo sapiens, UniProt P50406); conditions: cited from earlier work
rat 5-HT6 receptor = rat 5-HT6 receptor (Rattus norvegicus, UniProt P31388); conditions: cited from earlier work
female DIO rat model = conditions: cited from earlier work
DIO female rats = conditions: cited from earlier work; for cumulative weekly food intake: DIO female rats; for weight-loss versus control: after 28 days of administration, DIO rats
[5] = test system: normal lean and DIO female rats; conditions: cited from earlier work
5-HT6 receptor = 5-HT6 receptor (Homo sapiens, UniProt P50406); conditions: cited from earlier work
[6] = 30 mg/kg i.p., daily for 3 days, growing rats; cited from earlier work

Sequence of rat 5-HT6 receptor (P31388 whole entry): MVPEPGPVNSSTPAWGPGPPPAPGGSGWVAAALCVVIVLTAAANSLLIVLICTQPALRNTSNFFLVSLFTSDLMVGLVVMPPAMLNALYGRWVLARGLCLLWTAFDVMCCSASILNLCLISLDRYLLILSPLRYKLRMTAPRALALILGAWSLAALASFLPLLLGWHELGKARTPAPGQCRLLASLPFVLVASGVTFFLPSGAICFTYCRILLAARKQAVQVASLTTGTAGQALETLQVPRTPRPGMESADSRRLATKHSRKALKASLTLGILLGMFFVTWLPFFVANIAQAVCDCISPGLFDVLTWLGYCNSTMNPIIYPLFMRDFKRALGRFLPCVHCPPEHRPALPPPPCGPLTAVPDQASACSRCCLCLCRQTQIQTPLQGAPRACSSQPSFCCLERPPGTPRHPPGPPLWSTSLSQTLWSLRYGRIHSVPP
Sequence of 5-HT6 receptor (P50406 whole entry): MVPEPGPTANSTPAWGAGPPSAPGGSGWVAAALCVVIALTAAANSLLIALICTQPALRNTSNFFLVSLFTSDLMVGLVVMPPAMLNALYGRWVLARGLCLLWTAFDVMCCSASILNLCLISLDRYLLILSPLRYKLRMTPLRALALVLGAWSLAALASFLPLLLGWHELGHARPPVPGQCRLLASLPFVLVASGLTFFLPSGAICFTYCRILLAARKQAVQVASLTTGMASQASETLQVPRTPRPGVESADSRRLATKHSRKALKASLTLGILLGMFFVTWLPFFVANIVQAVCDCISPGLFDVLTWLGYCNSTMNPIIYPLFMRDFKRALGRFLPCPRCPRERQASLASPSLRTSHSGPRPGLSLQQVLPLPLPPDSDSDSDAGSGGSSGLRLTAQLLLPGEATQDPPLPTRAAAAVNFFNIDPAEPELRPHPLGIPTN
Sequence of cloned human 5-HT6 subtype (P50406 whole entry): as above

SMILES: Cc1[nH]c2ccc(Cl)cc2c1C1=CCNCC1 [Compound A, 5-Chloro-2-methyl-3-(1,2,3,6-tetrahydro-pyridin-4-yl)-1H-indole]
- plasma glucose concentration over time in oGTT compared to control [1]: dose dependent decrease in plasma glucose concentration
- glucose excursion in oGTT (C57/Bl6 mice): improved glucose excursion in a dose-dependent fashion
- hypoglycemia (plasma glucose levels) compared to control (C57bl/6 male mice [2]): did not cause hypoglycemia
- insulin release compared to vehicle (C57bl/6 male mice [3]): increased insulin release

SMILES: CN(C)CCc1c[nH]c2ccc(NS(=O)(=O)c3ccc4c(Cl)cccc4c3)cc12 [Compound E-6837]
- functionality at cloned human 5-HT6 subtype [4]: full agonist
- functionality at rat 5-HT6 receptor (rat 5-HT6 receptor): partial agonist
- food intake and adiposity (female DIO rat model): reduce food intake and adiposity
- cumulative weekly food intake (DIO female rats): significantly decreased consumption during the first, second and third weeks of treatment
- weight-loss versus control (DIO female rats): 15.7%
- body composition of weight-loss (DIO female rats; rat, in vivo): selective reduction in body fat with no changes in either water or protein content

SMILES: COc1cc(Cl)cc(C(C)Nc2cc(N3CCNCC3)ccc2S(C)(=O)=O)c1OC.Cl (centres unmarked) [PRX-07034]
- food intake and adiposity (female DIO rat model): reduce food intake and adiposity
- food intake ([5]; acute studies, normal lean and DIO female rats): inhibited food intake
- aversive effect ([5]; rat, in vivo): no aversive effect
- pKi (5-HT6 receptor): 8.40

SMILES: CNc1cc(NS(=O)(=O)c2ccc(N)cc2)nc(NC)n1 [Ro 04-6790]
- body weight-gain [6]: significantly attenuated body weight-gain

SMILES: CC(C)CC(N(C)C)C1(c2ccc(Cl)cc2)CCC1 (centres unmarked) [sibutramine]
- cumulative weekly food intake (DIO female rats): significantly reduced food intake only during the first week
- weight-loss versus control (DIO female rats): 11.0%
